Entries after “also recorded” stand apart in the source; their conditions may differ.
tested on: bacteria, fungi, and/or yeasts; type: binding; conditions: microorganism(s) listed as target(s) of the targeting peptide; wrapped target lists given cell by cell

| Substance | Target(s) |
| --- | --- |
| PF-001 (MNNWIIVAQLSVTVINEIIDIMKEKQKGGK) | S. epidermidis, M. luteus, P. mirabilis,; also recorded: E. coli, P. aeruginosa,; also recorded: C. albicans, MRSA, E. faecalis,; also recorded: C. jeikeium |
| PF-011 (MFCYYKQHKGDNFSIEEVKNIIADNEMKVN) | M. luteus, E. coli, P. aeruginosa,; also recorded: S. pneumoniae, C. jeikeium |
| PF-040 (MIHLTKQNTMEALHFIKQFYDMFFILNFNV) | C. albicans hyphae; also recorded: S. epidermidis, M. luteus, P. mirabilis,; also recorded: E. coli, P. aeruginosa,; also recorded: C. albicans, MRSA, S. pneumoniae,; also recorded: E. faecalis, C. jeikeium,; also recorded: C. jejuni |
| PF-130 (LQRSDEESMPRRHEKYS) | E. faecalis, C. jeikeium, C. jejuni |
| PF-008 (MIEIGSIAYLNGGSKKYNHILNQENR) | S. epidermidis, M. luteus, MRSA,; also recorded: C. jejuni |
| 1T-289 (EPSADIYLSAKDTKT) | F. nucleatum, P. gingivalis, S. gordonii,; also recorded: S. mitis, S. mutans, S. oralis,; also recorded: S. sanguinis |
| 1T-270 (VHEFDIQKILQNR) | F. nucleatum, S. mutans, S. oralis,; also recorded: S. sanguinis |
| PF-169 (APGSAADSPRSRADD) | S. epidermidis, E. coli, C. albicans,; also recorded: E. faecalis, C. jeikeium |
| PF-065 (LEKNTRDNYFIHAIDRIYINTSKGLFPESELVAWG) | M. luteus, E. coli, P. aeruginosa,; also recorded: C. albicans, MRSA, S. pneumoniae,; also recorded: C. jeikeium, C. jejuni |
| 1T-260 (NILYFIHDENQWEPQKAEIFRGSIKHCAWLSS) | A. naeslundii, P. gingivalis, S. epidermidis,; also recorded: S. gordonii, S. mitis,; also recorded: S. mutans, S. oralis, S. sanguinis |
| 1T-300 (PLIISKAQIKMSGDILGSCFKLFYLRPFF) | S. salivarious, S. sanguinis; also recorded: A. naeslundii, F. nucleatum, P. gingivalis,; also recorded: S. epidermidis, S. gordonii,; also recorded: S. mitis, S. mutans, S. oralis, |
| PF-005 (MESIFKIKLMNGICRSENMNMKKKNKGEKI) | S. epidermidis, E. coli, MRSA, S. pneumoniae,; also recorded: E. faecalis |
| PF-146 (GCGKRRIITKSASRDTR) | S. epidermidis, M. luteus, P. aeruginosa,; also recorded: C. albicans, MRSA,; also recorded: C. jeikeium |
| PF-629 (GLAAIATVFALY) | yeast and hyphal forms |
| PF-131 (RRAAARTKGNRR) | S. epidermidis, E. coli, MRSA, C. jeikeium |
| 1T-281 (KYEKLTKENLFIRNSGNMCVFIYFLFFG) | A. naeslundii, F. nucleatum, P. gingivalis,; also recorded: S. epidermidis, S. gordonii,; also recorded: S. mitis, S. mutans, S. oralis,; also recorded: S. salivarious, S. sanguinis |

| Substance | Target(s) |
| --- | --- |
| PF-060 (HSSHL) | C. albicans hyphae; also recorded: E. coli, C. albicans, C. jeikeium |
| PF-636 (LVRLA) | C. albicans hyphae |
| PF-174 (RGGDSPARRRPGLAGPGGPG) | S. epidermidis, P. aeruginosa, C. jeikeium |
| 1T-252 (MKKNLKRFYALVLGFIIGCLFVSILIFIGY) | F. nucleatum, S. sanguinis |
| PF-003 (MNNWIKVAQISVTVINEVIDIMKEKQNGGK) | S. epidermidis, M. luteus, P. mirabilis,; also recorded: C. albicans, MRSA, C. jeikeium |
| PF-033 (MFIFKTTSKSHFHNNVKSLECIKIPINKNR) | S. epidermidis, M. luteus, E. coli,; also recorded: P. aeruginosa, C. albicans,; also recorded: MRSA, S. pneumoniae |
| 1T-249 (VFSVLKHTTWPTRKQSWHDFISILEYSAFFALVIFIFDKLLTLGLAELLKRF) | F. nucleatum, S. sanguinis |
| PF-013 (LIQKGLNQTFIVVIRLNNFIKKS) | M. luteus, P. mirabilis, E. coli, P. aeruginosa,; also recorded: MRSA, S. pneumoniae,; also recorded: C. jeikeium, C. jejuni |
| PF-035 (SFYESY) | S. epidermidis, M. luteus, E. coli,; also recorded: C. albicans, MRSA, C. jeikeium,; also recorded: C. jejuni |
| PF-145 (GIVLTGRAGLVSGACSMALGVGLG) | S. epidermidis, M. luteus, P. mirabilis,; also recorded: E. coli, P. aeruginosa,; also recorded: C. albicans, MRSA, S. pneumoniae,; also recorded: E. faecalis, C. jeikeium,; also recorded: C. jejuni, M. smegmatis |
| 1T-286 (LGFFNNKADLVKADTERDNRMSSLKIKDL) | S. sanguinis |
| 1T-284 (FQYYFSLKRV) | A. naeslundii, F. nucleatum, P. gingivalis,; also recorded: S. gordonii, S. mitis,; also recorded: S. mutans, S. oralis, S. salivarious,; also recorded: S. sanguinis |
| PF-042 (LLLSYFRYTGALLQSLF) | S. epidermidis, M. luteus, P. mirabilis,; also recorded: E. coli, P. aeruginosa,; also recorded: C. albicans, MRSA, S. pneumoniae,; also recorded: E. faecalis, C. jeikeium |
| 1T-265 (GMFENLLMINFQIMNDLKIEIVVKDRICAV) | A. naeslundii, F. nucleatum, P. gingivalis,; also recorded: S. epidermidis, S. gordonii,; also recorded: S. mitis, S. mutans, S. oralis,; also recorded: S. salivarious, S. sanguinis |
| TT-306 (KILNEAEGKLLKVIEKNGEIDIEEI) | F. nucleatum |

same assay, conditions: microorganism(s) that the targeting peptide binds, as listed in Table 2

| Substance | Target(s) |
| --- | --- |
| PF-C008 (AQPRRTWLVNFGEVPSPGLTNDGMPDH) | A. naeslundii |
| PF-C069 (NALMLREMQLAKNIKVEVTDVLSNKKYC) | A. naeslundii, F. nucleatum, P. gingivalis,; also recorded: S. mutans, T. denticola |
| PF-W (FIDSFIRSF) | S. mutans |
| PF-S023 (MAEDERRALKRRTNRGRTRTRKRITV) | S. epidermidis, MRSA |
| PF-C080 (INIPGLF) | A. naeslundii, F. nucleatum, S. mutans |
| PF-C273 (KNMLKRRMKQKRLFDEEDRLRVLSKYTKSYY) | A. naeslundii, P. gingivalis, S. mutans,; also recorded: T. denticola |
| PF-C045 (FREGMGWPLSNEGSPTAPLPKHRNQV) | A. naeslundii, T. denticola |

same assay, conditions: microorganism(s) the targeting peptide binds, as listed in Table 2

| Substance | Target(s) |
| --- | --- |
| 1T-161 (NKVLQVEVMWDGSVVGRPAGVISIKSSKKG) | A. naeslundii, F. nucleatum, P. gingivalis,; also recorded: S. epidermidis, S. gordonii,; also recorded: S. mitis, S. mutans, S. oralis,; also recorded: S. salivarious, S. sanguinis |
| 1T-233 (TDQELEHLIVTELESKRLDFTYSKDITEFFDEAFPEYDQNY) | A. naeslundii, P. gingivalis, S. epidermidis,; also recorded: S. gordonii, S. mitis,; also recorded: S. mutans, S. oralis, S. salivarious,; also recorded: S. sanguinis |
| 1T-217 (MLSNVLSRSVVSPNVDIPNSMVILSPLLISISNYH) | F. nucleatum, S. sanguinis |
| 1T-159 (IFSLHHFALICSEMGTFAVSKRAKYKWEVL) | P. gingivalis |
| 1T-94 (DQVAHSGDMLVQARRRDS) | S. mitis, S. mutans, S. oralis |
| 1T-122 (GAIPDPVTHRVDWEEDHQTRPSR) | S. mitis |
| 1T-127 (YDPVPKRKNKNSEGKREE) | A. naeslundii, F. nucleatum, P. gingivalis,; also recorded: T. denticola, S. gordonii,; also recorded: S. mitis, S. mutans, S. oralis,; also recorded: S. salivarious, S. sanguinis |
| 1T-203 (YPFCLATVDHLPEGLSVTDYERVQRLVSQFLLNKEER) | A. naeslundii, F. nucleatum, P. gingivalis,; also recorded: S. epidermidis, S. gordonii,; also recorded: S. mitis, S. mutans, S. oralis,; also recorded: S. salivarious, S. sanguinis |
| 1T-4 (LDAYGELVGGN) | L. casei; also recorded: S. mutans, S. gordonii, S. sanguinis,; also recorded: S. oralis, V. atypica, |
| 1T-222 (RIEASLISAIMFSMFNAIVKFLQK) | F. nucleatum, S. sanguinis |
| 1T-84 (FRKKRYGLSILLWLNAFTNLVNSIHAFYMTLF) | S. pneumoniae |
| 1T-89 (HEDDKRRGMSVEVLGFEVVQHEE) | S. mitis, S. mutans |
| 1T-83 (QKPRKNETFIGYIQRYDIDGNGYQSLPCPQN) | S. pneumoniae |
| 1T-180 (VVFGGGDRLV) | A. naeslundii, F. nucleatum, P. gingivalis,; also recorded: T. denticola, S. gordonii,; also recorded: S. mitis, S. mutans, S. oralis,; also recorded: S. salivarious, S. sanguinis |
| 1T-216 (FFLNVIAIRIPHF) | S. sanguinis |
| 1T-39 (FGFCVWMYQLLAGPPGPPA) | S. mutans, P. aeruginosa |
| 1T-134 (SRLVREIKKKCRKS) | A. naeslundii, F. nucleatum, P. gingivalis,; also recorded: S. epidermidis, S. gordonii,; also recorded: S. mitis, S. mutans, S. oralis,; also recorded: S. salivarious, S. sanguinis |
| 1T-47 (VIKISVPGQVQMLIP) | S. mutans, S. epidermidis, P. aeruginosa |
| 1T-62 (GCKGCAQRDPCAEPEPYFRLR) | S. epidermidis, P. aeruginosa |
| 1T-207 (SPLEKYGTGSMTALTFLLGCCLLVLSKKSR) | F. nucleatum, S. sanguinis |
| 1T-196 (KPEKEKLDTNTLMKVVNKALSLFDRLLIKFGA) | F. nucleatum, S. sanguinis |
| 1T-230 (EFLEKFKVLKQPRKANNISKNRVAMIFLTIHKSRGFLSSPY) | A. naeslundii, F. nucleatum, P. gingivalis,; also recorded: S. epidermidis, S. gordonii,; also recorded: S. mitis, S. mutans, S. oralis,; also recorded: S. salivarious, S. sanguinis |
| 1T-46 (FSFKQRVMFRKEVERLR) | S. aureus, S. epidermidis, C. jeikeium,; also recorded: C. xerosis, C. striatum,; also recorded: P. aeruginosa |
| 1T-151 (SVRAVKPIDEIVAWHFPGDFIVN) | A. naeslundii, F. nucleatum, P. gingivalis,; also recorded: T. denticola, S. gordonii,; also recorded: S. mitis, S. mutans, S. oralis,; also recorded: S. salivarious, S. sanguinis |
| 1T-6 (KFINGVLSQFVLERK) | S. mutans |
| 1T-103 (AQFYEAIITGYALGAGQRIGQL) | A. naeslundii, F. nucleatum, P. gingivalis,; also recorded: S. epidermidis, S. gordonii,; also recorded: S. mitis, S. mutans, S. oralis,; also recorded: S. sanguinis |
| 1T-243 (SENIARFAAAFENEQVVSYARWFRRSWRGSGSSSRF) | A. naeslundii, P. gingivalis, S. epidermidis,; also recorded: S. gordonii, S. mitis,; also recorded: S. mutans, S. oralis, S. salivarious,; also recorded: S. sanguinis |
| 1T-81 (AIATGLDIVDGKFDGYLWA) | S. pneumoniae |
| 1T-234 (DNFYLILKMEERGKSKKTSQTRGFRAFFDIIRKKIKKEDGK) | A. naeslundii, F. nucleatum, P. gingivalis,; also recorded: S. epidermidis, S. gordonii,; also recorded: S. mitis, S. mutans, S. oralis,; also recorded: S. salivarious, S. sanguinis |
| 1T-99 (MKAWLGQ) | S. gordonii, S. mitis, S. mutans,; also recorded: S. oralis, S. sanguinis |

From patent US20120003661A1, “METHODS AND DEVICES FOR THE SELECTIVE DETECTION OF MICROORGANISMS” (C3 JIAN, INC., priority 2010, published 2012)
